Patent publication US6395746B1, “Methods of treating ophthalmic, otic and nasal infections and attendant inflammation” (Alcon Manufacturing, Ltd., priority 1998, dated 2002)
Values after ≈ are worked out from the molar mass of the structure shown.

How the values were obtained:
Experiment in all cases: Minimum inhibitory concentration (MIC90)
Format in all cases: cell-based
[1] = tested on: S. pneumoniae/penicillin sensitive
From the text: (§1) The concentrations of the antibiotics of formula (I) in the compositions of the present invention will vary depending on the intended use of the compositions (e.g., treatment of existing infections or prevention of post-surgical infections), and the relative antimicrobial activity of the specific antibiotic selected. The antimicrobial activity of antibiotics is generally expressed as the minimum concentration required to inhibit the growth of a specified pathogen. This concentration is also referred to as the “minimum inhibitory concentration” or “MIC”. The term “MIC90” refers to the minimum concentration of antibiotic required to inhibit the growth of ninety percent (90%) of the strains of a species. The concentration of an antibiotic required to totally kill a specified bacteria is referred to as the “minimum bactericidal concentration” or “MBC”. The minimum inhibitory concentration of Trovafloxacin for several bacteria commonly associated with ophthalmic, otic and nasal infections are provided in the following table: […]

[2] = tested on: S. aureus/methicillin resistant
From the text: as §1

[3] = tested on: S. aureus/quinolone resistant
From the text: as §1

[4] = tested on: S. epidermidis/methicillin sensitive
From the text: as §1

[5] = tested on: S. pneumoniae/penicillin resistant
From the text: as §1

[6] = tested on: H. influenzae/βlactamase negative
From the text: as §1

P. aeruginosa = tested on: P. aeruginosa
From the text: as §1

[7] = tested on: S. epidermidis/methicillin resistant
From the text: as §1

[8] = tested on: S. aureus/methicillin sensitive
From the text: as §1

[9] = tested on: H. influenzae/β-lactamase positive
From the text: as §1

**Q.** Which MIC90 [1] does the source give for N[C@@H]1[C@H]2CN(c3nc4c(cc3F)c(=O)c(C(=O)O)cn4-c3ccc(F)cc3F)C[C@@H]12 [Trovafloxacin] here?
**A.** 0.25 µg/mL (≈ 0.6 µM)

**Q.** What about the MIC90 [2] of the same compound?
**A.** 2.0 µg/mL (≈ 4.8 µM)

**Q.** What about the MIC90 [3] of the same compound?
**A.** 4.0 µg/mL (≈ 9.61 µM)

**Q.** And the MIC90 [4]?
**A.** 0.06 µg/mL (≈ 0.144 µM)

**Q.** What about the MIC90 [5] of the same compound?
**A.** 0.25 µg/mL (≈ 0.6 µM)

**Q.** And the MIC90 [6]?
**A.** 0.03 µg/mL (≈ 0.0721 µM)

**Q.** What about the MIC90 (P. aeruginosa) of the same compound?
**A.** 2.0 µg/mL (≈ 4.8 µM)

**Q.** What about the MIC90 [7] of the same compound?
**A.** 4.0 µg/mL (≈ 9.61 µM)

**Q.** What about the MIC90 [8] of the same compound?
**A.** 0.03 µg/mL (≈ 0.0721 µM)

**Q.** What about the MIC90 [9] of the same compound?
**A.** 0.03 µg/mL (≈ 0.0721 µM)
